From patent publication US20240390328A1, “PHARMACEUTICAL COMPOSITION CONTAINING AS ACTIVE INGREDIENT COMPOUND CONJUGATED TO G4 STRUCTURES OF CORONAVIRUSES FOR PREVENTION OR TREATMENT OF CORONAVIRUS INFECTIOUS DISEASES” (priority 2020, published 2024)
Like-named read-outs stand apart in the source and are kept apart here.

Experiments:
SARS-COV-2 [1] = assay: microbe, parasite or virus in culture; assay type: cell-based; conditions: for suppression of SARS-COV-2 infection (N protein expression), in words: 0.08 to 50 μM; for IC50: read-out: IC50, suppressing SARS-COV-2 infection (N protein expression)
HCoV-OC43 = HCoV-OC43 dose response curve analysis, virion production (plaque assay), HCT-8 cells; assay type: cell-based; conditions: 0.05 MOI, 72 hours after infection
[2] = system: SARS-COV-2 RNA G4, position 25197 (Surface glycoprotein); assay: CD thermal melting analysis, G4 No. 19; assay type: binding; conditions: G4 No. 19, position 25197, Surface glycoprotein; 15 μM RNA G4, 30 μM compound
Method: (§1) For melting, the samples were heated at 25 to 95° C. at 2° C./min with a data pitch of 0.5° C. CD melting analyses were performed with and without G4-binding compounds. The ratio of RNA: G4-binding compound was set to a molar ratio of 1:2. 15 μM RNA G4 was treated with 30 μM G4-binding compound and incubated at room temperature in a buffer comprising 10 mM Tris-HCl (pH 7.5) and 100 mM KCl for 30 minutes. Ellipticity was measured at 265 nm. Thereafter, data were normalized and plotted in OriginPro 2017 to calculate Tm values.
(§2) In addition, 15 μM RNA G4 was treated with 30 μM compound and incubated, and a CD thermal melting curve of RNA G4 (15 μM) was obtained in the presence or absence of the G4-binding compound. Furthermore, the effect of G4-binding compounds on the stability of SARS-COV-2 G4 was confirmed by measuring the difference in melting temperature (ΔTm). The results are illustrated in FIGS. 6A and 6B.

[3] = system: SARS-COV-2 RNA G4, position 26746 (Membrane protein); assay: CD thermal melting analysis, G4 No. 21; assay type: binding; conditions: G4 No. 21, position 26746, Membrane protein; 15 μM RNA G4, 30 μM compound
Method: as §1, §2

SARS-COV-2 [4] = assay: microbe, parasite or virus in culture; assay type: cell-based; conditions: Vero cells, read-out: IC50, virion production
[5] = system: SARS-COV-2 RNA G4, position 3467 (NsP3); assay: CD thermal melting analysis, G4 No. 6; assay type: binding; conditions: G4 No. 6, position 3467, NsP3; 15 μM RNA G4, 30 μM compound
Method: as §1, §2

[6] = system: SARS-COV-2 RNA G4, position 14947 (NsP12); assay: CD thermal melting analysis, G4 No. 12; assay type: binding; conditions: G4 No. 12, position 14947, NsP12; 15 μM RNA G4, 30 μM compound
Method: as §1, §2

N1-Mut-G4-3467 = assay type: biochemical, SARS-COV-2; conditions: N1-Mut-G4-3467, 5, 15, 25 and 50 μM
[7] = system: SARS-COV-2 RNA G4, position 10261 (NsP5); assay: CD thermal melting analysis, G4 No. 10; assay type: binding; conditions: G4 No. 10, position 10261, NsP5; 15 μM RNA G4, 30 μM compound
Method: as §1, §2

[8] = system: SARS-COV-2 RNA G4, position 644 (NsP1); assay: CD thermal melting analysis, G4 No. 2; assay type: binding; conditions: G4 No. 2, position 644, NsP1; 15 μM RNA G4, 30 μM compound
Method: as §1, §2

HEK293T cells = assay: Cell viability analysis (EZ Cytox), HEK293T cells; assay type: cell-based, Human; conditions: at 75 µM, after 48 hours
Method: (§3) Human embryonic kidney (HEK293T) cells and Vero cells were maintained in high-glucose Dulbecco's Modified Eagle's Medium (DMEM) supplemented with 10% fetal bovine serum (FBS) and 1% penicillin-streptomycin, and cultured in a humidified incubator at 37° C. and 5% CO2.
(§4) Cytotoxicity was analyzed using an EZ Cytox assay kit (DogenBio, Korea). HEK293T and Vero cells were put into a 96-well plate at a density of 2×10^4 cells/well in a medium volume of 100 μl/well and cultured at 37° C. for 24 hours. After 24 hours, the cells were treated with the G4-binding compound at various concentrations (0.1, 0.5, 1, 2.5, 5.5, 7.5, 10, 25, 50, and 75 μM) and cultured at 37° C. for 24 hours or 48 hours. Cell viability (%) was calculated by measuring the absorbance value at 455 nm (Luminescence multi-mode microplate reader Synergy™ Neo2) and using the following Equation 1. All experiments were performed in triplicate, and cells untreated with the compound were used as a control. DMEM with the EZ Cytox reagent was used as a blank.
(§5) The toxicity of PDS and PhenDC3 was confirmed in HEK293T cells and Vero cells. The results are illustrated in FIGS. 7A to 7D.

[9] = system: SARS-COV-2 RNA G4, position 2714 (NsP2 + NsP3); assay: CD thermal melting analysis, G4 No. 5; assay type: binding; conditions: G4 No. 5, position 2714, NsP2 + NsP3; 15 μM RNA G4, 30 μM compound
Method: as §1, §2

N1-WT-G4-644 (Nsp1 G4) = assay: In-vitro transcription/translation (IVT) analysis, EYFP reporter western blot, N1-WT-G4-644; assay type: biochemical, SARS-COV-2; conditions: N1-WT-G4-644, compound at 5 μM
Vero cells = assay: Cell viability analysis (EZ Cytox), Vero cells; assay type: cell-based; conditions: up to 75 μM after 48 hours
Method: as §3, §4, §5

[10] = system: 25 G4s predicted for SARS-COV-2; assay: CD thermal melting analysis, comparison of ΔTm over all G4s; assay type: binding
[11] = system: SARS-COV-2 RNA G4, position 1574 (NsP2); assay: CD thermal melting analysis, G4 No. 4; assay type: binding; conditions: G4 No. 4, position 1574, NsP2; 15 μM RNA G4, 30 μM compound
Method: as §1, §2

[12] = system: SARS-COV-2 RNA G4, position 1463 (NsP2); assay: CD thermal melting analysis, G4 No. 3; assay type: binding; conditions: G4 No. 3, position 1463, NsP2; 15 μM RNA G4, 30 μM compound
Method: as §1, §2

[13] = system: SARS-COV-2 RNA G4, position 4261 (NsP3); assay: CD thermal melting analysis, G4 No. 8; assay type: binding; conditions: G4 No. 8, position 4261, NsP3; 15 μM RNA G4, 30 μM compound
Method: as §1, §2

[14] = system: SARS-COV-2 RNA G4, position 18296 (NsP12); assay: CD thermal melting analysis, G4 No. 15; assay type: binding; conditions: G4 No. 15, position 18296, NsP12; 15 μM RNA G4, 30 μM compound
Method: as §1, §2

[15] = system: SARS-COV-2 RNA G4, position 28781 (Nucleocapsid protein); assay: CD thermal melting analysis, G4 No. 22; assay type: binding; conditions: G4 No. 22, position 28781, Nucleocapsid protein; 15 μM RNA G4, 30 μM compound
Method: as §1, §2

[16] = system: SARS-COV-2 RNA G4, position 28903 (Nucleocapsid protein); assay: CD thermal melting analysis, G4 No. 23; assay type: binding; conditions: G4 No. 23, position 28903, Nucleocapsid protein; 15 μM RNA G4, 30 μM compound
Method: as §1, §2

N1-WT-G4-353 (Nsp1 G4) = assay: In-vitro transcription/translation (IVT) analysis, EYFP reporter western blot, N1-WT-G4-353; assay type: biochemical, SARS-COV-2
[17] = system: SARS-COV-2 RNA G4, position 353 (NsP1); assay: CD thermal melting analysis, G4 No. 1; assay type: binding; conditions: G4 No. 1, position 353, NsP1; 15 μM RNA G4, 30 μM compound
Method: as §1, §2

N1-WT-G4-3467 (Nsp3 G4) = assay: In-vitro transcription/translation (IVT) analysis, EYFP reporter western blot, N1-WT-G4-3467; assay type: biochemical, SARS-COV-2; conditions: N1-WT-G4-3467, compound at 50 μM
[18] = Severe acute respiratory syndrome coronavirus 2, Vero cells, 0.0125 MOI, 24 hours

CN(C)c1ccc(Nc2c3ccc(NC(=O)CCN4CCCC4)cc3nc3cc(NC(=O)CCN4CCCC4)ccc23)cc1 [BRACO19, N-[9-[4-(dimethylamino)anilino]-6-(3-pyrrolidin-1-ylpropanoylamino)acridin-3-yl]-3-pyrrolidin-1-ylpropanamide]
suppression of SARS-COV-2 infection (N protein expression), in words (SARS-COV-2 [1]; Vero cells): suppressed SARS-COV-2 infection at high concentrations

CCC1=C(C)c2cc3[nH]c(cc4nc(cc5c(CC)c(C)c(cc1n2)n5C)C(C)=C4CCC(=O)O)c(CCC(=O)O)c3C [NMM, 3-[18-(2-carboxyethyl)-7,12-diethyl-3,8,13,17,22-pentamethyl-23H-porphyrin-2-yl]propanoic acid]
suppression of SARS-COV-2 infection (N protein expression), in words (SARS-COV-2 [1]; Vero cells): suppressed SARS-COV-2 infection at high concentrations
IC50 (HCoV-OC43): 2.1 µM

C[n+]1cc(NC(=O)c2ccc3ccc4ccc(C(=O)Nc5cc6ccccc6[n+](C)c5)nc4c3n2)cc2ccccc21 [PhenDC3, 2-N, 9-N-bis(1-methylquinolin-1-ium-3-yl)-1,10-phenanthroline-2,9-dicarboxamide]
Tm in ° C. with compound [2]: 57.51 °C
ΔTm [2]: −13.68 °C
Tm in ° C. with compound [3]: 79.68 °C
ΔTm [3]: 17.02 °C
IC50 (SARS-COV-2 [4]; 24 hours after infection): 24.5 µM
IC50 (SARS-COV-2 [4]; 48 hours after infection): 23.2 µM
Tm in ° C. with compound [5]: 98.81 °C
ΔTm [5]: 33.25 °C
Tm in ° C. with compound [6]: 82.96 °C
ΔTm [6]: 25.75 °C
EYFP expression, concentration-dependent suppression (N1-Mut-G4-3467): not suppressed
Tm in ° C. with compound [7]: 63.49 °C
ΔTm [7]: 15.6 °C
Tm in ° C. with compound [8]: 71.44 °C
ΔTm [8]: 23.71 °C
reduction in viability, HEK293T cells (HEK293T cells): 25%
Tm in ° C. with compound [9]: 91.7 °C
ΔTm [9]: 20.56 °C
EYFP expression reduced by (N1-WT-G4-644 (Nsp1 G4)): 50%
cytotoxicity in Vero cells (Vero cells): no cytotoxicity was observed
effect on stability of SARS-COV-2 G4 (ΔTm), in words ([10]; 15 μM RNA G4, 30 μM compound, FIGS. 6A and 6B): significantly stabilized most G4s
proportion of the G4s with ΔTm>20° C. ([10]; among the 25 G4s predicted for SARS-COV-2): 72%
number of G4s Destabilized ([10]; of the 25 SARS-COV-2 G4s): 2
Tm in ° C. with compound [11]: 47.74 °C
ΔTm [11]: −5.64 °C
Tm in ° C. with compound [12]: 91.3 °C
ΔTm [12]: 35.78 °C
Tm in ° C. with compound [13]: 85.41 °C
ΔTm [13]: 35.1 °C
Tm in ° C. with compound [14]: 86.32 °C
ΔTm [14]: 27.49 °C
Tm in ° C. with compound [15]: 70.40 °C
ΔTm [15]: 5.7 °C
Tm in ° C. with compound [16]: 60.21 °C
ΔTm [16]: 3.1 °C
EYFP expression reduced by (N1-WT-G4-353 (Nsp1 G4); N1-WT-G4-353, compound at 50 μM): 90%
suppressing EYFP reporter expression (N1-WT-G4-353 (Nsp1 G4); N1-WT-G4-353, concentrations less than 50 μM): not effective
Tm in ° C. with compound [17]: 82.00 °C
ΔTm [17]: 10.41 °C
reduction in EYFP expression (N1-WT-G4-3467 (Nsp3 G4)): 70%

C[n+]1ccccc1-c1c2nc(c(-c3cccc[n+]3C)c3ccc([nH]3)c(-c3cccc[n+]3C)c3nc(c(-c4cccc[n+]4C)c4ccc1[nH]4)C=C3)C=C2 [TMPyP2, 5,10,15,20-tetrakis(1-methylpyridin-1-ium-2-yl)-21,23-dihydroporphyrin]
IC50 (HCoV-OC43): 11.7 µM

C[n+]1ccc(-c2c3nc(c(-c4cc[n+](C)cc4)c4ccc([nH]4)c(-c4cc[n+](C)cc4)c4ccc([nH]4)c(-c4cc[n+](C)cc4)c4nc2C=C4)C=C3)cc1 [TMPyP4, 5,10,15,20-tetrakis(1-methylpyridin-1-ium-4-yl)-21,23-dihydroporphyrin]
IC50 (HCoV-OC43): 2.8 µM

CCN(CC)CCCC(C)Nc1ccnc2cc(Cl)ccc12 (stereo not drawn) [chloroquine, reference compound]
IC50 (SARS-COV-2 [1]; [18]): 9.63 µM

Cc1cccc(C)c1OCC(=O)N[C@@H](Cc1ccccc1)[C@@H](O)C[C@H](Cc1ccccc1)NC(=O)[C@H](C(C)C)N1CCCNC1=O [lopinavir, reference compound]
IC50 (SARS-COV-2 [1]; [18]): 12.1 µM

CCC(CC)COC(=O)[C@H](C)N[P@](=O)(OC[C@H]1O[C@@](C#N)(c2ccc3c(N)ncnn23)[C@H](O)[C@@H]1O)Oc1ccccc1 [remdesivir, reference compound]
IC50 (SARS-COV-2 [1]; Severe acute respiratory syndrome coronavirus 2, Vero, 24 h): 8.78 µM
